Results taken from ChEMBL document CHEMBL1152468, “Fitness cost and impaired survival in penicillin-resistant Streptococcus gordonii isolates selected in the laboratory” (2008).
≈ marks a conversion by molar mass, not a printed value. Calls of active or inactive are those of the source. The calls are words filed in the database; no cut-off is given here.

What was measured:
Streptococcus gordonii [1] = assay: Antimicrobial activity against penicillin-resistant Streptococcus gordonii PR1_2evolved mutant co-cultured with wild type Streptococcus gordoni assessed as loss of viability at stationary phase of growth at 0.5 ug/mL after 70 hrs relative to wild type; assay type: functional, organism-based
Streptococcus gordonii [2] = assay: Antimicrobial activity against penicillin-resistant Streptococcus gordonii PR1_2 mutant assessed as generation time at mid-logarithmic phase of growth; assay type: functional
Streptococcus gordonii [3] = assay: Ratio of generation time for wild type Streptococcus gordonii to generation time for penicillin-resistant Streptococcus gordonii PR1_2 mutant at mid-logarithmic phase of growth; assay type: functional
Streptococcus gordonii [4] = assay: Antimicrobial activity against wild type Streptococcus gordonii; assay type: functional
Streptococcus gordonii [5] = assay: Antimicrobial activity against penicillin-resistant Streptococcus gordonii PR1_2evolved mutant assessed as generation time at mid-logarithmic phase of growth; assay type: functional
Streptococcus gordonii [6] = assay: Antimicrobial activity against penicillin-resistant Streptococcus gordonii PR1_2 mutant assessed as logarithmic reduction in viability at stationary phase of growth after 70 hrs; assay type: functional
Streptococcus gordonii [7] = assay: Antimicrobial activity against wild type Streptococcus gordonii assessed as logarithmic reduction in viability at stationary phase of growth after 70 hrs; assay type: functional
Streptococcus gordonii [8] = assay: Ratio of generation time for wild type Streptococcus gordonii to generation time for penicillin-resistant Streptococcus gordonii PR1_2evolved mutant at mid-logarithmic phase of growth; assay type: functional
Streptococcus gordonii [9] = assay: Antimicrobial activity against wild type Streptococcus gordonii assessed as generation time at mid-logarithmic phase of growth; assay type: functional
Streptococcus gordonii [10] = assay: Antimicrobial activity against penicillin-resistant Streptococcus gordonii PR1_2evolved mutant co-cultured with wild type Streptococcus gordoni assessed as loss of viability at stationary phase of growth at 0.5 ug/mL after 15 hrs; assay type: functional, organism-based
Streptococcus gordonii [11] = assay: Antimicrobial activity against penicillin-resistant Streptococcus gordonii PR1_2 mutant; assay type: functional

Question: CC1(C)S[C@@H]2[C@H](NC(=O)Cc3ccccc3)C(=O)N2[C@H]1C(=O)O [PENICILLIN G] was tested. Which Activity (Streptococcus gordonii [1]) did it give?
Answer: Active

Question: What about the Activity (Streptococcus gordonii [2]) of the same compound?
Answer: 60.6 min

Question: And the Ratio (Streptococcus gordonii [3])?
Answer: 0.8

Question: And the MIC (Streptococcus gordonii [4])?
Answer: 0.008 µg/mL (≈ 0.0239 µM)

Question: And the Activity (Streptococcus gordonii [5])?
Answer: 45 min

Question: And the Activity (Streptococcus gordonii [6])?
Answer: >4 log10CFU/ml

Question: And the Activity (Streptococcus gordonii [7])?
Answer: 2 log10CFU/ml

Question: What about the Ratio (Streptococcus gordonii [8]) of the same compound?
Answer: 1.06

Question: What about the Activity (Streptococcus gordonii [9]) of the same compound?
Answer: 48.4 min

Question: And the Activity (Streptococcus gordonii [10])?
Answer: Active

Question: And the MIC (Streptococcus gordonii [11])?
Answer: 2 µg/mL (≈ 5.98 µM)
